Data from ChEMBL document CHEMBL1201862, “PubChem BioAssay data set” (2004).
Activity calls are given as the source filed them.

Experiments:
[1] = HeLa cell cytotoxicity, dose response, cytotoxicity control for MgcRacGAP inhibitor project (AID 624300); type: functional
[2] = molecular target: T1, Rac GTPase-activating protein 1 (Homo sapiens, UniProt Q9H0H5); experiment: MgcRacGAP GTPase-activating activity inhibitors, confirmation, biochemical, ADP Hunter fluorescence, primary and confirmatory (AID 624330); type: functional
T1 sequence (Q9H0H5 whole entry): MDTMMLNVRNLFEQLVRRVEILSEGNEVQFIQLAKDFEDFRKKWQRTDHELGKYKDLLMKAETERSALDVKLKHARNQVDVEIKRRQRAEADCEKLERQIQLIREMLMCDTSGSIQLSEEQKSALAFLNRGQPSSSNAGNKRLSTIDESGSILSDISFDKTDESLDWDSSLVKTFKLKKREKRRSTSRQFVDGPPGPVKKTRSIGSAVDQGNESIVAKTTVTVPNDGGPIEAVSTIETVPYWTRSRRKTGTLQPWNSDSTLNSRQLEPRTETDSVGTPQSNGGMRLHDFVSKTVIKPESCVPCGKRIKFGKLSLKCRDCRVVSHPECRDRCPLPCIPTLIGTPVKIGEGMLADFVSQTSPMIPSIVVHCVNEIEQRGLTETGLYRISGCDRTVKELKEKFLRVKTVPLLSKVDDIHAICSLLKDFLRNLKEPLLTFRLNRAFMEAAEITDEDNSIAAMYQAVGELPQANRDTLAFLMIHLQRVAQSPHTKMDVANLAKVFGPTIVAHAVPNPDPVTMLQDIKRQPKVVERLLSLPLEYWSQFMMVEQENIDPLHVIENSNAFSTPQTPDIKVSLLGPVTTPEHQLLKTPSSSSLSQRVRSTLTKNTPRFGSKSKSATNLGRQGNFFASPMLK

cells [3] = type: functional, cell-based
[4] = molecular target: T2, Trace amine-associated receptor 1 (Homo sapiens, UniProt Q96RJ0); experiment: Counterscreen for agonists of the human trace amine associated receptor 1 (hTAAR1): Fluorescence-based cell-based high throughput dose response assay to identify hTAAR1 agonist that also desensitize TAAR1 receptor response.; type: functional
T2 sequence (Q96RJ0 whole entry): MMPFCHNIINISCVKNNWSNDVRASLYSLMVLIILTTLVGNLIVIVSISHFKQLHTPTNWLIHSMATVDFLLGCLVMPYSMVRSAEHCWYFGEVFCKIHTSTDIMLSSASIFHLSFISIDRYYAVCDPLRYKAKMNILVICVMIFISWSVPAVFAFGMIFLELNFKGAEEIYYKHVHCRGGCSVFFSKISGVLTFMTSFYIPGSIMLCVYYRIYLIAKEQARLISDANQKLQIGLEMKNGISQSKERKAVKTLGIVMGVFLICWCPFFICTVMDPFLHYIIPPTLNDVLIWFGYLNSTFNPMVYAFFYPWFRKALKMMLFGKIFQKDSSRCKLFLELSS

[5] = molecular target: T2, Trace amine-associated receptor 1; experiment: Fluorescence-based cell-based high throughput dose response assay to identify agonists of the human trace amine associated receptor 1 (TAAR1).; type: functional
cells [6] = type: functional, cell-based; remark: listed apart in the source
[7] = molecular target: T3, Microphthalmia-associated transcription factor (Homo sapiens, UniProt O75030); experiment: TRPM1 promoter luciferase signal decrease, dose response, MITF inhibitor project, cell-based, SK-MEL-5, cherry-picked, set 3 (AID 493073); type: functional
T3 sequence (O75030 whole entry): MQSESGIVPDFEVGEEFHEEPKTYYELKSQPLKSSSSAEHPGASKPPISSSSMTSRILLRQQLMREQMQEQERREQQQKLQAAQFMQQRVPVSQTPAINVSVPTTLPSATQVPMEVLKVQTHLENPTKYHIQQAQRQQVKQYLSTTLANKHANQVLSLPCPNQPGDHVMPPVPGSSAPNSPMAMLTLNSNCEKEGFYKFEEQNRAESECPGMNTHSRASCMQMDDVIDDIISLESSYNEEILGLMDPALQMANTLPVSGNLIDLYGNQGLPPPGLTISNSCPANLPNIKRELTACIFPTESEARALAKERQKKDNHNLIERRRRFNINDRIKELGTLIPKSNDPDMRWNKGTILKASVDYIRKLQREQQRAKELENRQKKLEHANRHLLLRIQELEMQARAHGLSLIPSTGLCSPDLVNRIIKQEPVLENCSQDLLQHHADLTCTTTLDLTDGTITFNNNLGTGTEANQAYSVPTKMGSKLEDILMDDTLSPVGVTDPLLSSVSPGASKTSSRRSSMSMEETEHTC

[8] = Fluorescence-based cell-based high throughput dose response assay for inhibitors of the interaction of nucleotide-binding oligomerization domain containing 2 (NOD2) and the receptor-interacting serine-threonine kinase 2 (RIPK2).; type: functional; conditions: Homo sapiens
[9] = Luminescence Cell-Based Dose Retest to Confirm Inhibitors of Cancer Stem Cells. [Related pubchem assays (depositor defined):AID2717, AID2721]; type: functional; conditions: Homo sapiens
[10] = molecular target: T4, Sentrin-specific protease 8 (Homo sapiens, UniProt Q96LD8); type: functional
T4 sequence (Q96LD8 whole entry): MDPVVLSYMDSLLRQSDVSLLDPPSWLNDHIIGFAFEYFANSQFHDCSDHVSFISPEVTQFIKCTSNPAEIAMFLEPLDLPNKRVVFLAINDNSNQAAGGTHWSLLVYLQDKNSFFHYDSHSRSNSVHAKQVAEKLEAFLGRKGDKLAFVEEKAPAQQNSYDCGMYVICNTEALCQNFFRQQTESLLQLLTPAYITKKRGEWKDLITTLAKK

[11] = molecular target: T4, Sentrin-specific protease 8; type: functional; remark: listed apart in the source
INS1 = experiment: beta cell apoptosis inhibitors, cytokine rescue, dose response, luminescence, retest (AID 449756); type: functional, cell-based; conditions: Rattus norvegicus;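 further: cell death triggered by IL-1 beta plus TNF-alpha plus IFN-gamma mixture; protective hits raise ATP signal compared with cytokine alone wells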
Nonstructural protein 1 = Nonstructural protein 1 (Influenza A virus, UniProt Q194T2); type: functional, Influenza A virus (A/California/07/2009(H1N1))
[12] = non-specific cell cytotoxicity, dose response, cytotoxicity control for PAX8 inhibitor project, plate reader, dry powder samples (AID 743021); type: functional, cell-based
Paired box protein Pax-8 = Paired box protein Pax-8 (Homo sapiens, UniProt Q06710); experiment: inhibitors of PAX8-driven TPO luciferase reporter, dose response, RMG-I cells, cherry-pick (AID 687027); type: functional, cell-based;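 further: luciferase reporter driven by Pax8 target thyroperoxidase promoter measured by SteadyGlo luminescence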
Genome polyprotein = Genome polyprotein (dengue virus type 2, UniProt P29990); experiment: Dengue-2 NS5 methyltransferase inhibitors, primary screen, biochemical, confirmation dose response (AID 588689); type: functional
[13] = molecular target: T5, Replicative DNA helicase DnaB (Mycobacterium tuberculosis, UniProt P9WMR3); experiment: DnaB intein splicing inhibitors, dose response, biochemical, cell-free fluorescence (AID 449749); type: functional
T5 sequence (P9WMR3 whole entry): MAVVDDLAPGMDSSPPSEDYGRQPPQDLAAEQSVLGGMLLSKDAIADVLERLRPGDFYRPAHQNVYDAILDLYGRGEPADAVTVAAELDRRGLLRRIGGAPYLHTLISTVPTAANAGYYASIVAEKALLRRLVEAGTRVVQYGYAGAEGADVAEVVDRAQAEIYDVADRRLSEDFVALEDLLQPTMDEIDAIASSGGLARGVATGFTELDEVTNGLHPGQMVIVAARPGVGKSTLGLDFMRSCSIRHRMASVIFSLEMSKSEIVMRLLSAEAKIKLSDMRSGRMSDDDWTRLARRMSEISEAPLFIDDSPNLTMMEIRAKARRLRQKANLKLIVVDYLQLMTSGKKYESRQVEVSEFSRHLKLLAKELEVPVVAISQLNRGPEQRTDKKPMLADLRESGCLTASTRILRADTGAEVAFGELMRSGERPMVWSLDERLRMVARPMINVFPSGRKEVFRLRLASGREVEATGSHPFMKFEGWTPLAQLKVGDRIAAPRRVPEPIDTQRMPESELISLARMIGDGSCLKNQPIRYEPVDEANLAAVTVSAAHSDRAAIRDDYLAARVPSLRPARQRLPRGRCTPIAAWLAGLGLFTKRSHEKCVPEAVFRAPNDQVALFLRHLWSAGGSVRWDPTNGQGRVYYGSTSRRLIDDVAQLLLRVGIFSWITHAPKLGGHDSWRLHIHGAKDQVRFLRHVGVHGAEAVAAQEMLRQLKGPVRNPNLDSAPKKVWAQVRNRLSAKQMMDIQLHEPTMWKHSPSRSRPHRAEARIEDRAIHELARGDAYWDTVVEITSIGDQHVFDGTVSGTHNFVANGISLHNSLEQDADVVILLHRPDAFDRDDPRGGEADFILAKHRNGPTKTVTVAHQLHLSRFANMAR

Cytochrome P450 2D6 = Cytochrome P450 2D6 (Homo sapiens, UniProt P10635);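 further: CYP2D6 member of a cytochrome P450 panel assay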
Cytochrome P450 1A2 = molecular target: T6, Cytochrome P450 1A2 (Homo sapiens, UniProt P05177);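 further: PubChem cytochrome P450 panel assay, CYP1A2 panel member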
T6 sequence (P05177 whole entry): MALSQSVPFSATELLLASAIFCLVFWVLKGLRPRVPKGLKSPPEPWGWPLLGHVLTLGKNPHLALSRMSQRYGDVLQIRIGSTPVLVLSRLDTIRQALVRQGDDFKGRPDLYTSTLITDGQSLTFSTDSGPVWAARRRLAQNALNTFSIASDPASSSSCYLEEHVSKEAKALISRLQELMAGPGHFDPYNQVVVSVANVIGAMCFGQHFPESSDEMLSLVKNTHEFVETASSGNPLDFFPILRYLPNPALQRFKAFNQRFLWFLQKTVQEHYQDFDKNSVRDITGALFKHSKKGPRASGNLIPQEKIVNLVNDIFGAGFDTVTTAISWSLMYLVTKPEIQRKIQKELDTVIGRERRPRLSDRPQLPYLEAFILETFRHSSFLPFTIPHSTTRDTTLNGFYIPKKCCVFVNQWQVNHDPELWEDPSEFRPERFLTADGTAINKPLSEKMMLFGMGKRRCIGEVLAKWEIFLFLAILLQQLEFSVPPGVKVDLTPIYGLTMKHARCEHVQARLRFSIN

Protein RecA = molecular target: T7, Protein RecA (Mycobacterium tuberculosis, UniProt P9WHJ3); experiment: Fluorescence Cell-Free Homogeneous Dose Retest to Identify Inhibitors of RecA-Intein Splicing Activity. [Related pubchem assays (depositor defined):AID2097, AID2223, AID489010, AID492950]; type: functional
T7 sequence (P9WHJ3 whole entry): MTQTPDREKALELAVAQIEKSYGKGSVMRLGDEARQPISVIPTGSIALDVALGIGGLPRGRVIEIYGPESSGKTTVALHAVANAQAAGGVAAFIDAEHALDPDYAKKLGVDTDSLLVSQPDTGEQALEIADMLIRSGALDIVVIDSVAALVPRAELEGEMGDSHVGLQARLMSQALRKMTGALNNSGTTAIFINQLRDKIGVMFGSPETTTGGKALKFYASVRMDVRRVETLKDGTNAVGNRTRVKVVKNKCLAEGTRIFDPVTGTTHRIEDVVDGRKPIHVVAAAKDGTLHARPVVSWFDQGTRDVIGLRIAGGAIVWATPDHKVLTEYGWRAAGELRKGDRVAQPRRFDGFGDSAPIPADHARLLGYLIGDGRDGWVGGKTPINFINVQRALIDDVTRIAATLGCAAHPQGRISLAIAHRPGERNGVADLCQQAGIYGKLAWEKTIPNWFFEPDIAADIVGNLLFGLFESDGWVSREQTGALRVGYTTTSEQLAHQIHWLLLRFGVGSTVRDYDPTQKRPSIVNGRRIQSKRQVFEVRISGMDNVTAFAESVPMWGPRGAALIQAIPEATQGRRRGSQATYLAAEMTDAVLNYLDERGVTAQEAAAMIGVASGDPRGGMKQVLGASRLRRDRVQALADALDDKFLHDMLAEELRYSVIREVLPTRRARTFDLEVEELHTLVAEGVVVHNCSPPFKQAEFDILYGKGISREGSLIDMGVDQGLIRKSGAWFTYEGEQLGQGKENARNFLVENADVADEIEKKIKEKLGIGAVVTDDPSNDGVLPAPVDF

Cytochrome P450 2D6, sequence (P10635 whole entry): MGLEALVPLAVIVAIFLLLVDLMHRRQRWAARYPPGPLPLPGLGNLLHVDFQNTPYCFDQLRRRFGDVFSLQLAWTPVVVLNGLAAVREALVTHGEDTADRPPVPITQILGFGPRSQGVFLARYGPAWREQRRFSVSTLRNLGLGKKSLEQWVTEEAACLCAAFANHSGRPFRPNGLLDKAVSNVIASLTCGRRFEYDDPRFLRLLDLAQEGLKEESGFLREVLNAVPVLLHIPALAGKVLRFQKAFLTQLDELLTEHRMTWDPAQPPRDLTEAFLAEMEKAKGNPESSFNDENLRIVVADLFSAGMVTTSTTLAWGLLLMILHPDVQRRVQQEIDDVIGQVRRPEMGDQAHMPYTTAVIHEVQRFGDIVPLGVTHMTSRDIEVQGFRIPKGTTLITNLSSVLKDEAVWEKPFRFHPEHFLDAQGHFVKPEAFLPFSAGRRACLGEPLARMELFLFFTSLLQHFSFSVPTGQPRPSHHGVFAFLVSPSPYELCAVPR
Genome polyprotein, sequence (P29990 2492-3391 limits assumed): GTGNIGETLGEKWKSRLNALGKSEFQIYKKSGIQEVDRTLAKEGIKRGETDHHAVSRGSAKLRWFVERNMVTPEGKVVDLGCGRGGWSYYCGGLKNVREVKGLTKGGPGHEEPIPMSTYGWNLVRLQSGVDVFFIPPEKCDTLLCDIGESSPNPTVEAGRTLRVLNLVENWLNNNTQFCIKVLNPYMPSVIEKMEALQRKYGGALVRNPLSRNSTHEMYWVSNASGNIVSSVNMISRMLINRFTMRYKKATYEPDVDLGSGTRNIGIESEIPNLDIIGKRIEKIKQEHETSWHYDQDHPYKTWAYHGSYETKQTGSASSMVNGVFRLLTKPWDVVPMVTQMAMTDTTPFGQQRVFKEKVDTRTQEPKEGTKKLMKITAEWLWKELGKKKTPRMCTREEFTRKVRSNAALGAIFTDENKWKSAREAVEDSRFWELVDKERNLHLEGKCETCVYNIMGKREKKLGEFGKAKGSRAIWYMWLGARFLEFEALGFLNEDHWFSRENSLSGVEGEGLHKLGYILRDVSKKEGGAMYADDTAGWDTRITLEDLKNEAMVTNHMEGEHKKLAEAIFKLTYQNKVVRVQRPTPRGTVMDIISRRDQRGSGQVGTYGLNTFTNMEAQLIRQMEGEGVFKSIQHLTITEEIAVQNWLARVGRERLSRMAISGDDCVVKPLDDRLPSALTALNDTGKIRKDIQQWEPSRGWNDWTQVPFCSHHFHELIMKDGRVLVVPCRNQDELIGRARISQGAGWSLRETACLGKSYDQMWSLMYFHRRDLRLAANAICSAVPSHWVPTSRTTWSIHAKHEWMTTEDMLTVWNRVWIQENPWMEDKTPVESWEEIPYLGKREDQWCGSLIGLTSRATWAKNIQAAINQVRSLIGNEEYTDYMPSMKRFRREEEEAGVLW
Paired box protein Pax-8, sequence (Q06710 whole entry): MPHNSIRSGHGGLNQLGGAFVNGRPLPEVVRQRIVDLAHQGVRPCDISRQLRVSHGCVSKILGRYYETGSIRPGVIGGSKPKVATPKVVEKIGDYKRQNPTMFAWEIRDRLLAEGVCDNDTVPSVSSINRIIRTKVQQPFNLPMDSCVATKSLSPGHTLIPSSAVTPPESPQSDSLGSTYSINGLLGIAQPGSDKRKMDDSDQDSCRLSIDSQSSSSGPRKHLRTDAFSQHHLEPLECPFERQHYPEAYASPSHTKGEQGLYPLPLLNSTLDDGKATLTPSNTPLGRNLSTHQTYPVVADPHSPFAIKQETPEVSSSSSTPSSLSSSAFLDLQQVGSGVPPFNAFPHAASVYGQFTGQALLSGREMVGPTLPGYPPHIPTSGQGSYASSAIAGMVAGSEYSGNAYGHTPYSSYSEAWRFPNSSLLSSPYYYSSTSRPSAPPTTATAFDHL
Nonstructural protein 1, sequence (Q194T2 whole entry): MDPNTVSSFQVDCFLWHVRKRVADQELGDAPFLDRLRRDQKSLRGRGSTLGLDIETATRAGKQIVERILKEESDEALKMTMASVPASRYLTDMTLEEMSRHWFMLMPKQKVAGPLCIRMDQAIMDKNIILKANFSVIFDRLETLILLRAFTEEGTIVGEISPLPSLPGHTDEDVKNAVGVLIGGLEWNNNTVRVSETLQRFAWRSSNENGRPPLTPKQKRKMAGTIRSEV

COc1ccccc1-n1c(/C=C/c2ccc(O)cc2)nc2ccccc2c1=O
CC50 [1]: 100 µM (active) | IC50 [2]: 106 µM (active)

Cc1ccn2c(CNCC3OCCc4ccccc43)c(C(=O)N3CCCCCC3)nc2c1 (configuration not stated)
IC50 (cells [3]): > 29.9 µM (inactive) | IC50 [4]: 9.37 µM (active) | EC50 [5]: 4.98 µM (active) | EC50 (cells [6]): > 29.9 µM (inactive)

O=[N+]([O-])c1cc(S(=O)(=O)N2CCCCCC2)ccc1F
AC50 [7]: 9.53 µM (active) | IC50 [8]: 1.53 µM (active) | AC50 [9]: 3.09 µM (active)

Oc1ccc(-c2[nH]ncc2-c2ccc(Cl)cc2)c(O)c1
CC50 [1]: 100 µM (active) | IC50 [2]: 90.8 µM (active)

COC/C=C/C1=CC2=CC(=O)C(C)(OC(=O)c3cnc4ccccc4n3)C(=O)C2=CN1Cc1ccccc1 (configuration not stated)
IC50 [10]: 18.9 µM (active) | IC50 [11]: 12.7 µM (active)

O=C(O)/C=C/C(=O)NCCCc1ccccc1
IC50 (cells [3]): > 29.9 µM (inactive) | IC50 [4]: > 29.9 µM (inactive) | EC50 [5]: 7.06 µM (active) | EC50 (cells [6]): > 29.9 µM (inactive)

COc1cc(N/N=C/c2ccccc2O)ncn1
AC50 (INS1): 3.67 µM (active) | IC50 (cells [3]): > 29.9 µM (inactive) | IC50 [4]: 6.63 µM (active) | IC50 (Nonstructural protein 1): 5.73 µM (active) | EC50 [5]: > 29.9 µM (inactive) | EC50 (cells [6]): > 29.9 µM (inactive)

O=C(Nc1ccc(C(F)(F)F)cc1)N1C[C@@H]2N[C@H](C1)[C@H]2c1ccc(-c2cccc(F)c2)cc1
AC50 [12]: 27.9 µM (active) | AC50 (Paired box protein Pax-8): 13.2 µM (active)

Cc1nn(-c2ccc(F)cc2)c(O)c1C(c1cccc(O)c1)c1c(C)[nH]n(-c2ccc(F)cc2)c1=O (configuration not stated)
IC50 [10]: 14.6 µM (active) | IC50 (Genome polyprotein): 55.5 µM (active) | IC50 [11]: 12.2 µM (active) | AC50 [13]: 1.06 µM (active) | AC50 (Cytochrome P450 2D6): 28.2 µM (inconclusive) | AC50 (Cytochrome P450 1A2): 25.1 µM (inconclusive) | EC50 (Protein RecA): 0.856 µM (active)
